# Measurements from US20210169837A1, “COMPOSITION FOR REDUCING NEW-ONSET DIABETES” (MOCHIDA PHARMACEUTICAL CO., LTD., priority 2012, published 2021).
# Experiments:
# [1] = test system: aged people of at least 66 years old administered with statin; details: compared to the case of pravastatin; cited from earlier work
# [2] = test system: Human fetal rhabdomyosarcoma cell line (RD cell, ATCC); test: 2-3H-deoxyglucose uptake by differentiated skeletal muscle cells; format: cell-based; details: for Uptake of radioactivity (2-3H-deoxyglucose) per 1 μg of protein: statin = 30 μM simvastatin, EPA = 50 μM sodium eicosapentate
# Method: (1) Human fetal rhabdomyosarcoma cell line (RD cell, ATCC) was inoculated in 24 well plate and cultured in a growth medium (10% fetal bovine serum (FCS), Dulbecco's modified Eagle medium (DMEM), low glucose, 1% nonessential amino acid) to confluency. (2) The cells were then cultivated in differentiation medium (2% horse serum (HS), Dulbecco's modified Eagle medium (DMEM), low glucose, 1% nonessential amino acid) for 3 to 5 days for differentiation into muscle cell.
# (3) After the incubation, the medium was removed by aspiration, and the cells were incubated in an uptake buffer (140 mM NaCl, 5 mM KCl, 2.5 mM MgSO4, 20 mM HEPES, 1 mM CaCl2, pH=7.4) supplemented with 10 μM of 2-3H-deoxyglucose at 37° C. for 12 minutes. (4) After the incubation, the cells were washed 4 times with cold stop solution (PBS(−)supplemented with 10 mM glucose).
# The PBS(−) contained 0.2 g of NaH2PO4.2H2O, 3.225 g of Na2HPO4.12H2O, and 8 g of NaCl in 1 L, and the pH was at 7.2 to 7.4.
# (5) After the washing, 500 μL/well of aqueous solution of 0.4N sodium hydroxide was added, and the cells were lyzed by heating to 56° for 20 minutes. (6) 300 μL of the well content (cell lysate) was mixed with 4 mL of Atomlight (manufactured by PerkinElmer), and ^3H count was measured with a liquid scintillation counter. The well content (cell lysate) was also measured for its protein concentration to calculate the ^3H count per 1 μg of the protein.
# FIG. 1 is the graph showing the uptake of radioactivity (y axis) in relation to the incubation time (x axis) for each group.
compound,measurement,setting,value
CC(C)c1nc(N(C)S(C)(=O)=O)nc(-c2ccc(F)cc2)c1/C=C/[C@@H](O)C[C@@H](O)CC(=O)O [rosuvastatin],risk of the incidence of the diabetes compared to pravastatin,[1],significantly increased
CC[C@H](C)C(=O)O[C@H]1C[C@@H](C)C=C2C=C[C@H](C)[C@H](CC[C@@H]3C[C@@H](O)CC(=O)O3)[C@H]21 [lovastatin],risk of the incidence of the diabetes compared to pravastatin,[1],no significant difference
"CCC(C)(C)C(=O)O[C@H]1C[C@@H](C)C=C2C=C[C@H](C)[C@H](CC[C@@H]3C[C@@H](O)CC(=O)O3)[C@H]21 [Statin, simvastatin]",rate of decrease of radioactivity uptake,"[2]; 48 hr of incubation, vs control group, 30 μM simvastatin (with or without 50 μM EPA)",about 73%
same,Uptake of radioactivity (2-3H-deoxyglucose) per 1 μg of protein,[2]; incubation time 1 hr,563 dpm/μg protein
same,Uptake of radioactivity (2-3H-deoxyglucose) per 1 μg of protein,[2]; incubation time 6 hr,489 dpm/μg protein
same,Uptake of radioactivity (2-3H-deoxyglucose) per 1 μg of protein,[2]; incubation time 24 hr,343 dpm/μg protein
same,Uptake of radioactivity (2-3H-deoxyglucose) per 1 μg of protein,[2]; incubation time 48 hr,170 dpm/μg protein
CC(C)c1c(C(=O)Nc2ccccc2)c(-c2ccccc2)c(-c2ccc(F)cc2)n1CC[C@@H](O)C[C@@H](O)CC(=O)O [atorvastatin],risk of the incidence of the diabetes compared to pravastatin,[1],significantly increased
